According to US20120309763A1, “ANTIFUNGAL COMPOSITION INTENDED TO BE APPLIED TO A PERFORATED NAIL” (priority 2009, published 2012):

Tests used:
[1] = Diffusion of terbinafine HCl through the layers of the nail, Franz cells (Example 10): intermediate layer
Protocol: For each formulation, 2 nails (1 with the dorsal layer and 1 without the dorsal layer) are used per donor. The treatment time is 5 days with a new application of each formula every day. The amount of formula deposited daily on the surface of the nail is 10 μl/cm2.
For each donor, the thickness of the nails is measured. Then, for each donor, the nails are prepared in the following manner:
4 nails without dorsal layer: for the nails from this group, the dorsal face is removed using a miniature sander in order to reach the intermediate layer by removing 40% of the initial thickness of the nail,
The Franz type diffusion cells used are placed in a thermostatically-controlled bath in order to obtain a temperature of 32±1° C. at the surface of the nail. The nails are placed in the diffusion cell with the ventral side towards the receiving compartment, phosphate buffer (pH 7.4±0.1) containing 0.1% of Volpo (Oleth-20). During the experiment, the diffusion cells are placed in a thermostatically-controlled bath in order to obtain a temperature of 32±1° C. This temperature is checked before each withdrawal. […]
The samples, receiving liquids and nail extracts are then analysed by MS/MS. […]
The procedures of the study and also the amounts of terbinafine HCl in the various layers of the nail, dorsal and intermediate, were carried out and analysed according to the same protocol as before.

[2] = Diffusion of terbinafine HCl through the layers of the nail, Franz cells (Example 10): dorsal layer; type: in vitro ADME; settings: 5 days
Text: This temperature is checked before each withdrawal.

Structure (SMILES) | factor of reduction of the amount of terbinafine HCl in the nail by the presence of the amphoteric agent ([1]; Lamisil Spray 1% with vs without amphoteric agent, intermediate layer, 5 days) | increase of the penetration of terbinafine through the dorsal layer by the presence of the amphoteric agent (×) ([2]; 10% solution with vs without amphoteric agent) | factor of reduction of the amount of terbinafine HCl in the nail by the presence of the amphoteric agent ([2]; Lamisil Spray 1% with vs without amphoteric agent, dorsal layer) | factor of better diffusion in the intermediate layer relative to the dorsal layer ([1]; composition with amphoteric agent)
CCCCCCCCCCCC[N+](C)(C)CC(=O)[O-] [amphoteric agent, Lauryl Dimethylaminoacetic Acid Betaine] | 3 | 3 | 3 | 
CN(C/C=C/C#CC(C)(C)C)Cc1cccc2ccccc12.Cl [terbinafine HCl, terbinafine hydrochloride, reference compound] |  |  |  | 3
